# Source: patent US20240025919A1, “AZA-TETRACYCLIC OXAZEPINE COMPOUNDS AND USES THEREOF” (Genentech, Inc., priority 2022, published 2024)
# Assays:
# KRAS WT = KRAS WT (Homo sapiens (Human), UniProt P01116); assay: KRAS WT Biochemical Assay, BODIPY-GDP Exchange TR-FRET (Example 501; 3 nM KRAS WT, 3 nM SOS1, 60-minute incubation); conditions: read-out: KRas HTRF IC50
# How it was run: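 SOS1-mediated exchange assay: 3 nM biotin-KRAS WT with terbium-streptavidin, started with 3 nM SOS1 and 300 nM BODIPY-GDP, HEPES pH 7.5 with MgCl2. TR-FRET (520/490 nm) read after 60 min; normalized to DMSO and full-inhibition control, IC50 from 4-parameter Hill fit.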
# KRAS G12D = KRAS G12D (Homo sapiens (Human), UniProt P01116, G12D); assay: KRAS G12D LoEnz Biochemical Assay, BODIPY-GDP Exchange TR-FRET (SOS1-mediated nucleotide exchange); conditions: read-out: KRas (G12D) GDP HTRF IC50
# Chain of KRAS G12D (P01116-2 other isoform, or with tags, fused parts or gaps G12D): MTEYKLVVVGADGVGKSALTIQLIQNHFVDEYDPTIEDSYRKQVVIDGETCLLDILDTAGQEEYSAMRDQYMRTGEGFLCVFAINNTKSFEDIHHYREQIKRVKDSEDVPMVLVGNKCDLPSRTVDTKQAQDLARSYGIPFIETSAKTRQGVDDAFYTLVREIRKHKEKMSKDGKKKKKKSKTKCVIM
# Chain of KRAS WT (P01116-2 other isoform, or with tags, fused parts or gaps): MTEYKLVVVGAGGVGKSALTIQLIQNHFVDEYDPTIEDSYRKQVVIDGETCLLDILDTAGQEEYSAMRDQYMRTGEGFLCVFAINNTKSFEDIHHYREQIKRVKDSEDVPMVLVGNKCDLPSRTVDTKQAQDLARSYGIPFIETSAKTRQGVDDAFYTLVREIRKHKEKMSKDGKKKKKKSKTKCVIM
SMILES,IC50 (KRAS WT) [nM],IC50 (KRAS G12D) [nM]
"Cc1nc(N)cc(-c2nc3c4c(nc(OCC5(CN6CCOC(C(F)(F)F)C6)CC5)nc4c2F)N2C[C@H]4CC[C@H](N4)[C@H]2[C@H](C)O3)c1C(F)(F)F (stereo partly drawn) [Compound 267, 4-((5S,5aS,6S,9R)-1-fluoro-5-methyl-12-((1-((2-(trifluoromethyl)morpholino)methyl)cyclopropyl)methoxy)-5a,6,7,8,9,10-hexahydro-5H-4-oxa-3,10a,11,13,14-pentaaza-6,9-methanonaphtho[1,8-ab]heptalene-2-yl)-6-methyl-5-(trifluoromethyl)pyridin-2-amine]",609,2.98
"Cc1nc(N)cc(-c2nc3c4c(nc(OCC5(CN6CC[C@H]7OCC[C@H]76)CC5)nc4c2F)N2C[C@H]4CC[C@H](N4)[C@H]2[C@H](C)O3)c1C(F)(F)F [Compound 268, 4-((5S,5aS,6S,9R)-1-fluoro-12-((1-(((3aR,6aR)-hexahydro-4H-furo[3,2-b]pyrrol-4-yl)methyl)cyclopropyl)methoxy)-5-methyl-5a,6,7,8,9,10-hexahydro-5H-4-oxa-3,10a,11,13,14-pentaaza-6,9-methanonaphtho[1,8-ab]heptalene-2-yl)-6-methyl-5-(trifluoromethyl)pyridin-2-amine]",11.9,0.29
"Cc1nc(N)cc(-c2nc3c4c(nc(OCC5(CN6C[C@H](F)C[C@H](F)C6)CC5)nc4c2F)N2C[C@H]4CC[C@H](N4)[C@H]2[C@H](C)O3)c1C(F)(F)F [Compound 269, 4-((5S,5aS,6S,9R)-12-((1-(((3S,5R)-3,5-difluoropiperidin-1-yl)methyl)cyclopropyl)methoxy)-1-fluoro-5-methyl-5a,6,7,8,9,10-hexahydro-5H-4-oxa-3,10a,11,13,14-pentaaza-6,9-methanonaphtho[1,8-ab]heptalene-2-yl)-6-methyl-5-(trifluoromethyl)pyridin-2-amine]",105,0.42
"COCC1(F)CCN(CC2(COc3nc4c5c(nc(-c6cc(N)nc(C)c6C(F)(F)F)c(F)c5n3)O[C@@H](C)[C@@H]3[C@@H]5CC[C@H](CN43)N5)CC2)C1 (stereo partly drawn) [Compound 270, 4-((5S,5aS,6S,9R)-1-fluoro-12-((1-((3-fluoro-3-(methoxymethyl)pyrrolidin-1-yl)methyl)cyclopropyl)methoxy)-5-methyl-5a,6,7,8,9,10-hexahydro-5H-4-oxa-3,10a,11,13,14-pentaaza-6,9-methanonaphtho[1,8-ab]heptalen-2-yl)-6-methyl-5-(trifluoromethyl)pyridin-2-amine]",10.7,0.26
"COC1(C(F)F)CN(CC2(COc3nc4c5c(nc(-c6cc(N)nc(C)c6C(F)(F)F)c(F)c5n3)O[C@@H](C)[C@@H]3[C@@H]5CC[C@H](CN43)N5)CC2)C1 [Compound 271, 4-((5S,5aS,6S,9R)-12-((1-((3-(difluoromethyl)-3-methoxyazetidin-1-yl)methyl)cyclopropyl)methoxy)-1-fluoro-5-methyl-5a,6,7,8,9,10-hexahydro-5H-4-oxa-3,10a,11,13,14-pentaaza-6,9-methanonaphtho[1,8-ab]heptalene-2-yl)-6-methyl-5-(trifluoromethyl)pyridin-2-amine]",56.4,0.51
"COC1(CF)CN(CC2(COc3nc4c5c(nc(-c6cc(N)nc(C)c6C(F)(F)F)c(F)c5n3)O[C@@H](C)[C@@H]3[C@@H]5CC[C@H](CN43)N5)CC2)C1 [Compound 272, 4-((5S,5aS,6S,9R)-1-fluoro-12-((1-((3-(fluoromethyl)-3-methoxyazetidin-1-yl)methyl)cyclopropyl)methoxy)-5-methyl-5a,6,7,8,9,10-hexahydro-5H-4-oxa-3,10a,11,13,14-pentaaza-6,9-methanonaphtho[1,8-ab]heptalene-2-yl)-6-methyl-5-(trifluoromethyl)pyridin-2-amine]",24.4,0.38
